Here are results for five compounds from publication PMC5226997 (European Journal of Clinical Pharmacology, 2016).

The conditions of data set [1]: human, in vivo, 75 mg.
Experimental: (§1) The rifampicin open-label, fixed-sequence, single-center trial consisted of three visits to the study center (Fig. 1b). Subjects were screened during visit 1, which is 28 days prior to visit 2. […] Safety assessments were performed, and blood samples were collected for PK analysis up until day 15. Subjects were discharged from the study center on day 15. The final visit, visit 3, was for follow-up and took place 7–10 days after discharge.
(§2) Subjects received daily dosing of rifampicin 600 mg for 8 days to maximize the induction effect on CYP3A4 [10]. […] Fluids were not allowed from 1 h pre- until 1 h post-dose, with the exception of water needed to swallow investigational products.
(§3) Blood samples were collected prior to itraconazole or fluconazole administration on days 6 to 8 to determine trough itraconazole or fluconazole concentrations; rifampicin concentrations were measured at 2 h post-dose. In study B, the 4β-hydroxycholesterol to cholesterol concentration ratio was calculated as a biomarker of CYP3A4 induction. […] Samples were analyzed by Covance on behalf of AstraZeneca R&D, using an appropriate bioanalytical method [e.g., [11], [12]].
(§4) PK variables were summarized using descriptive statistics.
(§5) After addition of deuterated internal standard, samples were extracted by protein precipitation by the addition of 4 volumes of methanol:acetonitrile. After centrifugation, the supernatants were extracted to dryness under nitrogen at 50°C and reconstituted in methanol;water before analysis.
For data set [2] the following is noted: human, in vivo.
Text: (§6) The phase I, open-label, single-center, double-crossover-sequence, partially randomized (for assignment to treatment sequence), three-period itraconazole/fluconazole trial consisted of four visits to the study center (Fig. 1a). Subjects were screened during visit 1, which is 28 days prior to visit 2.
(§7) On day 1 of visit 2, subjects were randomized to one of two treatment sequences and admitted for residence at the study center up to day 12; standardized meals were provided during residency. […] Safety assessments were performed, and blood samples were collected for PK analysis up until day 12. Subjects were discharged on day 12 and completed a washout period of at least 21 days.
(§8) During visit 3, dosing period 3 comprised days 1–11 when subjects received the alternate treatment regimen (fluconazole 400 mg on day 1 followed by 200 mg once daily thereafter or itraconazole 200 mg twice daily) in a crossover fashion. […] Subjects were discharged on day 12. A follow-up visit, visit 4, was scheduled for 7–10 days after discharge from the study center.
(§9) Fluids were not allowed from 1 h pre- until 1 h post-dose, with the exception of 240 mL water to swallow the capsules. Fluconazole was dosed with a light breakfast; there were no restrictions regarding dosing with food in the SPC [8]. Itraconazole was dosed with a light breakfast and dinner as per SPC guidelines to ensure complete absorption [9].
as §3, §4, §5
Data set [3] in a line: Frozen storage stability in plasma samples. Conditions: plasma with K2EDTA; -20°C -80°C.
Experimental: as §5
Data set [4] is described as follows: Study B: plasma pharmacokinetics of single-dose selumetinib 75 mg alone or co-dosed with rifampicin. Conditions: human, in vivo.
Experimental: as §1, §2, §3, §4, §5
A short description of data set [5]: Study B: safety and tolerability (adverse events). It is filed as in vivo, human. The procedure: Adverse events (reported by system organ class and preferred term using the Medical Dictionary for Regulatory Activities (MedDRA) version 17.0), vital signs, 12-lead electrocardiograms (ECGs), and clinical laboratory tests were recorded to assess safety and tolerability in both trials. Adverse events were collected from day 1, period 1 of visit 2, until the follow-up visit in each trial. Serious adverse events were collected from the time of informed consent until follow-up. Each adverse event was assigned to the period of study treatment in which it started or worsened. Additional information regarding safety and tolerability is included as Online Resource 3.
The safety analysis set included any subject who received at least one dose of any of the investigational products, and in addition in the itraconazole/fluconazole trial, for whom post-dose data were available.

Data set [6] can be described thus: clinical. The conditions noted are these: human, in vivo, 75 mg.
Experimental: as §1, §2, §3, §4, §5
Details of data set [7]: method as in earlier work. The conditions noted are these: relative bioavailability trial NCT01635023; cited from earlier work.
Data set [8] in a line: Study A: safety and tolerability (adverse events). It is filed as in vivo, human.
For data set [9] the following is noted: human.
Experimental: as §5
Data set [10] can be described thus: Study A: plasma pharmacokinetics of single-dose selumetinib 25 mg alone or co-dosed with itraconazole or fluconazole. Conditions: for AUC / Cmax / half-life: human, plasma, oral.
Text: as §6, §7, §8, §9, §3, §4, §5
The mark [11] stands for this setting: during single-agent (only) treatment.
Where [12] appears, read: co-dosed with fluconazole vs selumetinib alone.

“And” between values parts separate entries of the source, which are not always exact repeats. Identical values can stand only once. Like-named read-outs stand apart in the source and are kept apart here. Marks after values point to notes of the source that are not given here.

Turning to `O=C(NOCCO)c1cc2nc[nH]c2c(F)c1Nc1ccc(Br)cc1Cl` [N-desmethyl selumetinib], in [1], the “AUC(0–t), geometric least squares mean (GLSMR line)” value is 347.3 ng·h/mL; the “C max, geometric least squares mean (GLSMR line)” value (shortened to “C max … (GLSMR line)”) was 106.4 ng/mL; the “MRAUC (AUC metabolite to parent ratio), arithmetic mean (SD)” value is listed as 0.0921 (0.0236)^a; the “MRAUC(0–t) (AUC(0–t) metabolite to parent ratio), arithmetic mean (SD)” value is reported as 0.0921 (0.0236). Also, in [1], the “MRCmax (C max metabolite to parent ratio), arithmetic mean (SD)” value is 0.0760 (0.0187); the “t 1/2 arithmetic mean (SD)” value is reported as 9.47 (3.24) h; the “t max median (min, max)” value is reported as 1.50 (1.00, 3.00) h. Moreover, in data set [2] (25 mg), the “AUC(0–t), geometric least squares mean (GLSMR line)” value was determined as 83.39 ng·h/mL; the “C max … (GLSMR line)” value came to 35.67 ng/mL; the “MRAUC(0–t) (AUC(0–t) metabolite to parent ratio), arithmetic mean (SD)” value is listed as 0.0760 (0.0227); the “MRCmax (C max metabolite to parent ratio), arithmetic mean (SD)” value is given as 0.0917 (0.0312). In data set [2] (25 mg), the “t 1/2 arithmetic mean (SD)” value is 4.66 (2.38) h and the “t max median (min, max)” value is 1.00 (0.50, 2.50) h. For the same compound, the “established frozen storage stability period” value in data set [3] came out at 9 months.
Turning to `Cn1cnc2c(F)c(Nc3ccc(Br)cc3Cl)c(C(=O)NOCCO)cc21` [Selumetinib], the AUC in data set [4] came out at 4480 ng·h/mL; in data set [6] (AUC, geometric least squares mean (GLSMR line)), 4480 ng·h/mL; in data set [10] (25 mg, AUC (CV%), study A, selumetinib 25 mg alone, N = 26) it was 1180 ng·h/mL; in data set [10] (25 mg, AUC, geometric least squares mean (GLSMR line), study A, selumetinib 25 mg alone, n = 26, linear mixed-effects model) it was 1180 ng·h/mL; in [10] (AUC (CV%), study A, selumetinib 25 mg + fluconazole, N = 22), 1770 ng·h/mL; in [10] (AUC (CV%), study A, selumetinib 25 mg + itraconazole, N = 24), 1760 ng·h/mL. Besides, the AUC in data set [10] (AUC, geometric least squares mean (GLSMR line), study A, selumetinib 25 mg + fluconazole, n = 22, linear mixed-effects model) was found to be 1820 ng·h/mL; in data set [10] (AUC, geometric least squares mean (GLSMR line), study A, selumetinib 25 mg + itraconazole, n = 24, linear mixed-effects model), 1770 ng·h/mL. The “relation of adverse events to selumetinib treatment” value in data set [5] (all adverse events mild) was “unrelated”. Moreover, the “subjects reporting at least one adverse event” value was 4.5% in [5] (selumetinib co-dosed with rifampicin, one subject (erythema)) and 18.2% in data set [5] (selumetinib-only treatment, four subjects). Moreover, the tolerability result in [5] (single dose or co-administered with rifampicin) and in data set [8] (single dose or co-administered with itraconazole or fluconazole) was “well tolerated” each time. In addition, the “C max … (GLSMR line)” value in [1] turned out to be 1441 ng/mL. Moreover, the “CL/F arithmetic mean (SD)” value is 17.0 (3.33) L/h in [1]; 14.8 (4.39) L/h in [10] (study A, selumetinib 25 mg + fluconazole, N = 22); 14.9 (4.92) L/h in data set [10] (study A, selumetinib 25 mg + itraconazole, N = 24); 21.9 (5.76) L/h in [10] (study A, selumetinib 25 mg alone, N = 26). Also, the Tmax – broadly, the time at which the peak concentration occurs – in data set [6] came to 1.27 h. Further, the half-life (as a rule, how long it takes for the measured level to halve) is 9.27 h in [6] (t 1/2 arithmetic mean (SD)); 8.24 h in [10] (25 mg, t 1/2 arithmetic mean (SD), study A, selumetinib 25 mg alone, N = 26); around 1.5 h in data set [10] (mean t 1/2 prolonged by, co-dosed with fluconazole vs selumetinib alone); around 6 h in data set [10] (mean terminal half-life (t 1/2) prolonged by, co-dosed with itraconazole vs selumetinib alone); 9.75 h in data set [10] (t 1/2 arithmetic mean (SD), study A, selumetinib 25 mg + fluconazole, N = 22); 14 h in [10] (t 1/2 arithmetic mean (SD), study A, selumetinib 25 mg + itraconazole, N = 24). For the same compound, the “within-subject coefficient of variation (CV) for AUC” value in data set [7] is on record as 16.9%. The “within-subject coefficient of variation (CV) for C max” value in [7] is 34.0%. Moreover, the “subjects reporting adverse events” value in data set [8] (setting [11]) was 7.7%; in data set [8] (selumetinib co-dosed with fluconazole, 4/22), 18.2%; in data set [8] (selumetinib co-dosed with itraconazole, n = 7/24), 29.2%. In data set [8] (selumetinib and itraconazole co-dosing, n = 2), the “subjects with selumetinib-related adverse events (diffuse alopecia, headache; mild)” value is 8.3%. For the same compound, in data set [8] (selumetinib co-dosed with fluconazole, one subject), the “subjects with selumetinib-related acne (mild)” value was found to be 4.5%. This compound also came in with a subjects reporting headache in data set [8] (selumetinib co-dosed with itraconazole, n = 4/24) of 16.7%. In [8] (selumetinib co-dosed with itraconazole, one subject), the “subjects reporting a moderate adverse event (headache)” value turned out to be 4.2%. Moreover, the “established frozen storage stability period” value in data set [9] was found to be 24 months. In addition, the “AUC increased by” value in data set [10] (setting [12]) was 53% and ~ 50%. In addition, the “C max increased by” value in data set [10] (setting [12]) was found to be 26%. Besides, the Cmax in data set [10] (25 mg, C max (CV%), study A, selumetinib 25 mg alone, N = 26) worked out at 409 ng/mL; in data set [10] (25 mg, C max, geometric least squares mean (GLSMR line), study A, selumetinib 25 mg alone, n = 26, linear mixed-effects model) it was 409 ng/mL; in data set [10] (C max (CV%), study A, selumetinib 25 mg + fluconazole, N = 22), 509 ng/mL; in data set [10] (C max (CV%), study A, selumetinib 25 mg + itraconazole, N = 24), 484 ng/mL; in data set [10] (C max, geometric least squares mean (GLSMR line), study A, selumetinib 25 mg + fluconazole, n = 22, linear mixed-effects model), 513 ng/mL; in [10] (C max, geometric least squares mean (GLSMR line), study A, selumetinib 25 mg + itraconazole, n = 24, linear mixed-effects model), 484 ng/mL.
For `OC(Cn1cncn1)(Cn1cncn1)c1ccc(F)cc1F` [fluconazole, reference compound], the “trough plasma concentration (geometric mean)” value in data set [2] lay in the range of 5590 to 5730 ng/mL. Also, in [8] (setting [11]), the “subjects reporting adverse events” value is listed as 17.4%.
For `CCC(C)n1ncn(-c2ccc(N3CCN(c4ccc(OCC5COC(Cn6cncn6)(c6ccc(Cl)cc6Cl)O5)cc4)CC3)cc2)c1=O` (centres unmarked) [itraconazole, reference compound], in data set [8] (setting [11]), the “subjects reporting adverse events” value is reported as 20.8%.
Regarding `CO[C@H]1/C=C/O[C@@]2(C)Oc3c(C)c(O)c4c(O)c(c(/C=N/N5CCN(C)CC5)c(O)c4c3C2=O)NC(=O)/C(C)=C\C=C\[C@H](C)[C@H](O)[C@@H](C)[C@@H](O)[C@@H](C)[C@H](OC(C)=O)[C@@H]1C` [rifampicin, reference compound], the “subjects reporting adverse events” value in [5] (period of rifampicin administration (days 4–11)) is “all subjects”. In addition, the subjects reporting chromaturia result in data set [5] (period of rifampicin administration (days 4–11), resolved 2 to 3 days after treatment ceased) is “reported by all of these subjects”.
